Biological target: T1, guinea pig trachea (NKA or [β-ala8]-NKA(4-10) as agonist) (Cavia porcellus, UniProt Q64077)
T1 construct: The trachea are removed, trimmed of excess tissue and divided into two segments; from tissue; host or cells: guinea pig trachea rings (male animals)
T1 sequence (Q64077 1-402): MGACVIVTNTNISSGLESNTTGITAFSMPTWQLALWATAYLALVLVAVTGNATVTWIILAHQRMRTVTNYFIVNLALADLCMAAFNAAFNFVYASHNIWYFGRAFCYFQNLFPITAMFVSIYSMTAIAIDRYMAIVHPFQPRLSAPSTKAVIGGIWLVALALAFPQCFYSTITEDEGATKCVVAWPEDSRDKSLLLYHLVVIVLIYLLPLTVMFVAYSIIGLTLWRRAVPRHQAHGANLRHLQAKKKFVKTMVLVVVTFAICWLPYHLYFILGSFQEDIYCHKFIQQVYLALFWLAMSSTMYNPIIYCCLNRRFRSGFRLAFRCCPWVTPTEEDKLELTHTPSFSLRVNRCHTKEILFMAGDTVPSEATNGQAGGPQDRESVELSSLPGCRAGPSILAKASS
Experiment: Guinea Pig Assay (Test B): antagonism of NKA or [β-ala8]-NKA(4-10) contraction in guinea pig trachea
Settings: -log molar KB
Procedure: In the test described below either NKA or [β-ala^8 ]-NKA(4-10) is used as an agonist. The chosen agonist is refered to as AG throughout the description.
Male guinea pigs are killed by a sharp blow to the back of the head. The trachea are removed, trimmed of excess tissue and divided into two segments. […] Initial tension placed on each tissue is 1 g, which is maintained throughout a 0.5 to 1.5 hour equilibration period before addition of other drugs. Contractile responses are measured on a Grass polygraph via Grass FT-03 force transducers.
Tissues are challenged repetitively with a single concentration of AG (10 nM) with intervening 30 min periods with washing to allow the tension to return to baseline levels. […] Percent inhibition is determined when a Compound produces a statistically significant (p<0.05) reduction of the contraction and is calculated using the second contractile response as 100%.
Potencies of selected Compounds are evaluated by calculating apparent dissociation constants (KB) for each concentration tested using the standard equation: […]
where dose ratio=antilog[(AG -log molar EC50 without Compound)--(AG -log molar EC50 with Compound)]. The KB values may be converted to the negative logarithms and expressed as -log molar KB (i.e. pKB). […] The EC50 values are converted to the negative logarithms and expressed as -log molar EC50. […]

- Kb: 20 nM
SMILES: CC(=O)N(C1CCCCC1)C1CCN(CCC(CN(C)C(=O)c2ccccc2)c2ccc(Cl)c(Cl)c2)CC1 (stereo not shown) [Example 4, N-[4-[4-(N-Cyclohexylacetamido)piperidino]-2-(3,4-dichlorophenyl)butyl]-N-methylbenzamide]

Source: patent US5559132A, “Carboxamide derivatives for treating asthma” (Zeneca Limited, priority 1993, dated 1996)
